Test results as given in ChEMBL document CHEMBL3860062, “Synthesis and biological evaluation of novel hydrogen sulfide releasing nicotinic acid derivatives” (Bioorg Med Chem, 2016).

Tests used:
HT-22 [1] = assay: Neuroprotective activity against glutamate-induced neuronal cell damage in mouse HT22 cells assessed as cell survival rate at 50 uM after 24 hrs by MTT assay (reference value: 12.49 to 43.44%); type: functional; details: HT-22, 24 h, read-out: Survival
HT-22 [2] = assay: Neuroprotective activity against glutamate-induced neuronal cell damage in mouse HT22 cells assessed as cell survival rate at 10 uM after 24 hrs by MTT assay (reference value: 12.49 to 43.44%); type: functional; details: HT-22, 24 h, read-out: Survival
HT-22 [3] = assay: Neuroprotective activity against glutamate-induced neuronal cell damage in mouse HT22 cells assessed as cell survival rate at 100 uM after 24 hrs by MTT assay (reference value: 12.49 to 43.44%); type: functional; details: HT-22, 24 h, read-out: Survival
HT-22 [4] = assay: Neuroprotective activity against glutamate-induced neuronal cell damage in mouse HT22 cells assessed as cell survival rate at 1 uM after 24 hrs by MTT assay (reference value: 12.49 to 43.44%); type: functional; details: HT-22, 24 h, read-out: Survival
[5] = Cytotoxicity against mouse HT22 cells assessed as cell survival rate at 100 uM after 24 hrs by MTT assay; type: toxicity, HT-22; details: read-out: Survival
HT-22 [6] = assay: Neuroprotective activity against glutamate-induced neuronal cell damage in mouse HT22 cells assessed as increase in cell viability at 1 to 100 uM after 24 hrs by MTT assay relative to glutamate; type: functional
Mus musculus [7] = assay: Protection against focal cerebral ischemia in ICR mouse model of […] assessed as reduction in infarct volume administered ip 3 hrs post reperfusion measured 48 hrs post MCAO by TTC staining based assay; type: functional
Mus musculus [8] = assay: Protection against focal cerebral ischemia in ICR mouse model of […] assessed as infarct volume of striatum at 100 mg/kg, ip dosed 3 hrs post reperfusion measured 48 hrs post MCAO by TTC staining based assay (reference value: 56.18%); type: functional
Mus musculus [9] = assay: Protection against focal cerebral ischemia in ICR mouse model of […] assessed as infarct volume of […] at 100 mg/kg, ip dosed 3 hrs post reperfusion measured 48 hrs post MCAO by TTC staining based assay (reference value: 62.75%); type: functional
Mus musculus [10] = assay: Protection against focal cerebral ischemia in ICR mouse model of […] assessed as infarct volume of hemisphere at 100 mg/kg, ip dosed 3 hrs post reperfusion measured 48 hrs post MCAO by TTC staining based assay (reference value: 44.98%); type: functional
Rattus norvegicus = assay: Protection against focal cerebral ischemia in Wistar rat model of […] assessed as reduction in infarction volume administered ip at 2 hrs post reperfusion measured 3 days post MCAO; type: functional

SMILES: CC(C)[C@H](NC(=O)c1cccnc1)C(=O)OCCCCOc1ccc(-c2cc(=S)ss2)cc1
- viability at 50 µM (HT-22 [1]): 70.8%
- viability at 10 µM (HT-22 [2]): 72.4%
- viability at 100 µM (HT-22 [3]): 68.1%
- viability at 1 µM (HT-22 [4]): 73.3%
- viability at 24 h, 100 µM [5]: 68%

SMILES: O=C(N[C@@H](Cc1ccccc1)C(=O)OCCCCOc1ccc(-c2cc(=S)ss2)cc1)c1cccnc1
- viability at 50 µM (HT-22 [1]): 101%
- viability at 10 µM (HT-22 [2]): 87.7%
- viability at 100 µM (HT-22 [3]): 101%
- viability at 1 µM (HT-22 [4]): 64.7%
- viability at 24 h, 100 µM [5]: 100%

SMILES: O=C(OCCCCCCOc1ccc(-c2cc(=S)ss2)cc1)c1cccnc1
- viability at 50 µM (HT-22 [1]): 78.2%
- viability at 10 µM (HT-22 [2]): 83.2%
- fold change (FC) (HT-22 [6]): 6
- MED (Mus musculus [7]): 100 mg/kg
- Activity (Mus musculus [8]): 23.04%
- Activity (Mus musculus [9]): 38.01%
- viability at 100 µM (HT-22 [3]): 71.3%
- viability at 1 µM (HT-22 [4]): 82.6%
- viability at 24 h, 100 µM [5]: 100%
- Activity (Mus musculus [10]): 25.93%

SMILES: O=C(OCCCCCCCCOc1ccc(-c2cc(=S)ss2)cc1)c1cccnc1
- viability at 50 µM (HT-22 [1]): 76.3%
- viability at 10 µM (HT-22 [2]): 78%
- viability at 100 µM (HT-22 [3]): 82.3%
- viability at 1 µM (HT-22 [4]): 82.5%
- viability at 24 h, 100 µM [5]: 100%

SMILES: C[C@H](NC(=O)c1cccnc1)C(=O)OCCCCOc1ccc(-c2cc(=S)ss2)cc1
- viability at 50 µM (HT-22 [1]): 77.9%
- viability at 10 µM (HT-22 [2]): 75.5%
- viability at 100 µM (HT-22 [3]): 71.1%
- viability at 1 µM (HT-22 [4]): 68.7%
- viability at 24 h, 100 µM [5]: 100%

SMILES: O=C(OCCCCCCCCCOc1ccc(-c2cc(=S)ss2)cc1)c1cccnc1
- viability at 50 µM (HT-22 [1]): 80.6%
- viability at 10 µM (HT-22 [2]): 101%
- viability at 100 µM (HT-22 [3]): 70.4%
- viability at 1 µM (HT-22 [4]): 108%
- viability at 24 h, 100 µM [5]: 70.4%

SMILES: O=C(O)c1cccnc1 [NIACIN]
- viability at 50 µM (HT-22 [1]): 63.8%
- viability at 10 µM (HT-22 [2]): 58.9%
- viability at 100 µM (HT-22 [3]): 75.3%
- viability at 1 µM (HT-22 [4]): 56.2%

SMILES: O=C(OCCCOc1ccc(-c2cc(=S)ss2)cc1)c1cccnc1
- viability at 50 µM (HT-22 [1]): 93.4%
- viability at 10 µM (HT-22 [2]): 87.2%
- viability at 100 µM (HT-22 [3]): 89.8%
- viability at 1 µM (HT-22 [4]): 33.7%
- viability at 24 h, 100 µM [5]: 100%

SMILES: O=C(Oc1ccc(-c2cc(=S)ss2)cc1)c1cccnc1
- viability at 50 µM (HT-22 [1]): 82.4%
- viability at 10 µM (HT-22 [2]): 64.2%
- viability at 100 µM (HT-22 [3]): 78.3%
- viability at 1 µM (HT-22 [4]): 43.3%
- viability at 24 h, 100 µM [5]: 100%

SMILES: O=C(OCCCCOc1ccc(-c2cc(=S)ss2)cc1)c1cccnc1
- viability at 50 µM (HT-22 [1]): 87.9%
- viability at 10 µM (HT-22 [2]): 94.8%
- viability at 100 µM (HT-22 [3]): 93.5%
- viability at 1 µM (HT-22 [4]): 66.9%
- viability at 24 h, 100 µM [5]: 52.9%

SMILES: NC(=O)c1cccnc1 [NIACINAMIDE]
- MED (Rattus norvegicus): 500 mg/kg

SMILES: O=C(OCCCCCOc1ccc(-c2cc(=S)ss2)cc1)c1cccnc1
- viability at 50 µM (HT-22 [1]): 93.3%
- viability at 10 µM (HT-22 [2]): 92.5%
- viability at 100 µM (HT-22 [3]): 82.2%
- viability at 1 µM (HT-22 [4]): 52.9%
- viability at 24 h, 100 µM [5]: 100%

SMILES: O=C(CNC(=O)c1cccnc1)OCCCCOc1ccc(-c2cc(=S)ss2)cc1
- viability at 50 µM (HT-22 [1]): 100%
- viability at 10 µM (HT-22 [2]): 87.4%
- viability at 100 µM (HT-22 [3]): 99%
- viability at 1 µM (HT-22 [4]): 69.2%
- viability at 24 h, 100 µM [5]: 100%

SMILES: Oc1ccc(-c2cc(=S)ss2)cc1
- viability at 50 µM (HT-22 [1]): 104%
- viability at 10 µM (HT-22 [2]): 52.2%
- viability at 100 µM (HT-22 [3]): 76.4%
- viability at 1 µM (HT-22 [4]): 33.4%

SMILES: O=C(OCCOc1ccc(-c2cc(=S)ss2)cc1)c1cccnc1
- viability at 50 µM (HT-22 [1]): 91.5%
- viability at 10 µM (HT-22 [2]): 80.8%
- viability at 100 µM (HT-22 [3]): 102%
- viability at 1 µM (HT-22 [4]): 57.9%
- viability at 24 h, 100 µM [5]: 100%
